# Data taken from patent US12187723B2 (BRISTOL-MYERS SQUIBB COMPANY, priority 2019, dated 2025).
# Molecular target: T1, human TLR8 (Homo sapiens, UniProt Q9NR97)
# T1 construct: host or cells: HEK-Blue cells
# T1 sequence (Q9NR97 27-1041): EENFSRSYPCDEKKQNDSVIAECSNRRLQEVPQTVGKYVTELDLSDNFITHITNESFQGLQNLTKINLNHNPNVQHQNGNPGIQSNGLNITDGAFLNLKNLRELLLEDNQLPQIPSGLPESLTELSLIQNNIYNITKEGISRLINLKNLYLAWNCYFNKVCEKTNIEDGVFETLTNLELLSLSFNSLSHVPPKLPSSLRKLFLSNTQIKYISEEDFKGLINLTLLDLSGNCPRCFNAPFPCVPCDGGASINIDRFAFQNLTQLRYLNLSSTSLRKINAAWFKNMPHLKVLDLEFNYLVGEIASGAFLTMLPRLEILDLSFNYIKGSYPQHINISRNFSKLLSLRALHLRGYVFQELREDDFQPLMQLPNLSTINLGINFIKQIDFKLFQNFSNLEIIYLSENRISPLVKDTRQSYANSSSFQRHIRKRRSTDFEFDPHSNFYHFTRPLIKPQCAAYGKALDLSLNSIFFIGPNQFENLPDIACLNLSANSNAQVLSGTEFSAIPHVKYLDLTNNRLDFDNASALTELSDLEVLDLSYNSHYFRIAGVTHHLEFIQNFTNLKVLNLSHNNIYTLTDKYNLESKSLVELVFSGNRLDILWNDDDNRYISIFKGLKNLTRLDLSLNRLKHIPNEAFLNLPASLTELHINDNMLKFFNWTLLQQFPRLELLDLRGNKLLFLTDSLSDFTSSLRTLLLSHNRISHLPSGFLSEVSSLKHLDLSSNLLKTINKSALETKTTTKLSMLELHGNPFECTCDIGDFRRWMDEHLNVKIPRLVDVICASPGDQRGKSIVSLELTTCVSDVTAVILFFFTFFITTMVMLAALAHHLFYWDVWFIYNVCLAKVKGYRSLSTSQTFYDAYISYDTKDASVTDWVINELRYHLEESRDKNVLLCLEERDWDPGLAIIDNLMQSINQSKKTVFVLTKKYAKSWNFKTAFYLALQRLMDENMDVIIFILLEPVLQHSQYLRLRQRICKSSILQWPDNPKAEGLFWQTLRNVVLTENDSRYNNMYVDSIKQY
# Test: TLR8 inhibition reporter assay (HEK-Blue SEAP)
# Type: cell-based
# Settings: HEK-Blue cells overexpressing human TLR8, R848 15.9 μM, 22 hour incubation
# How it was run: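 Agonists used: gardiquimod 7.5 μM (TLR7), R848 15.9 μM (TLR8), ODN2006 5 nM (TLR9), added after 30 min room-temperature compound pre-treatment (0.05 nM–50 μM) of receptor-overexpressing HEK-Blue cells. SEAP reporter (NF-κB/AP-1 driven) read after 22 h at 37 °C; inhibition scaled between agonist+DMSO and reference-inhibitor wells.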
row,IC50 [nM],SMILES
1,10.1,"COc1cc(-c2cc3[nH]c(=O)n([C@H]4CCCN(CCC(C)C)C4)c3cc2C(C)C)cn2ncnc12 [Example 132, (S)-1-(1-isopentylpiperidin-3-yl)-6-isopropyl-5-(8-methoxy-[1,2,4]triazolo[1,5-a]pyridin-6-yl)-1,3-dihydro-2H-benzo[d]imidazol-2-one]"
2,5.9,"COc1cc(-c2cc3[nH]c(=O)n([C@H]4CCCN(CC5CCC5)C4)c3cc2C(C)C)cn2ncnc12 [Example 133, (S)-1-(1-(cyclobutylmethyl)piperidin-3-yl)-6-isopropyl-5-(8-methoxy-[1,2,4]triazolo[1,5-a]pyridin-6-yl)-1,3-dihydro-2H-benzo[d]imidazol-2-one]"
3,5.93,"CCCN1CCC[C@@H](n2c(=O)[nH]c3cc(-c4cc(OC)c5ncnn5c4)c(C(C)C)cc32)C1 [Example 134, (R)-6-isopropyl-5-(8-methoxy-[1,2,4]triazolo[1,5-a]pyridin-6-yl)-1-(1-propylpiperidin-3-yl)-1,3-dihydro-2H-benzo[d]imidazol-2-one]"
4,20,"COc1cc(-c2cc3[nH]c(=O)n([C@@H]4CCCN(C5COC5)C4)c3cc2C(C)C)cn2ncnc12 [Example 135, (R)-6-isopropyl-5-(8-methoxy-[1,2,4]triazolo[1,5-a]pyridin-6-yl)-1-(1-(oxetan-3-yl)piperidin-3-yl)-1,3-dihydro-2H-benzo[d]imidazol-2-one]"
5,2.01,"COc1cc(-c2cc3[nH]c(=O)n([C@@H]4CCCN(C)C4)c3cc2C(C)C)cn2ncnc12 [Example 136, (R)-6-isopropyl-5-(8-methoxy-[1,2,4]triazolo[1,5-a]pyridin-6-yl)-1-(1-methylpiperidin-3-yl)-1,3-dihydro-2H-benzo[d]imidazol-2-one]"
6,1.37,"COc1cc(-c2cc3[nH]c(=O)n([C@@H]4CCCN(C(C)C)C4)c3cc2C(C)C)cn2ncnc12 [Example 137, (R)-6-isopropyl-1-(1-isopropylpiperidin-3-yl)-5-(8-methoxy-[1,2,4]triazolo[1,5-a]pyridin-6-yl)-1,3-dihydro-2H-benzo[d]imidazol-2-one]"
7,2.64,"CCN1CCC[C@@H](n2c(=O)[nH]c3cc(-c4cc(OC)c5ncnn5c4)c(C(C)C)cc32)C1 [Example 138, (R)-1-(1-ethylpiperidin-3-yl)-6-isopropyl-5-(8-methoxy-[1,2,4]triazolo[1,5-a]pyridin-6-yl)-1,3-dihydro-2H-benzo[d]imidazol-2-one]"
8,1.27,"COc1cc(-c2cc3[nH]c(=O)n([C@@H]4CCCN(CC5CCOCC5)C4)c3cc2C(C)C)cn2ncnc12 [Example 139, (R)-6-isopropyl-5-(8-methoxy-[1,2,4]triazolo[1,5-a]pyridin-6-yl)-1-(1-((tetrahydro-2H-pyran-4-yl)methyl)piperidin-3-yl)-1,3-dihydro-2H-benzo[d]imidazol-2-one]"
9,3.92,"COc1cc(-c2cc3[nH]c(=O)n([C@@H]4CCCN(CC5CCC5)C4)c3cc2C(C)C)cn2ncnc12 [Example 140, (R)-1-(1-(cyclobutylmethyl)piperidin-3-yl)-6-isopropyl-5-(8-methoxy-[1,2,4]triazolo[1,5-a]pyridin-6-yl)-1,3-dihydro-2H-benzo[d]imidazol-2-one]"
10,0.56,"COc1cc(-c2cc3[nH]c(=O)n([C@@H]4CCCN(CC(C)C)C4)c3cc2C(C)C)cn2ncnc12 [Example 141, (R)-1-(1-isobutylpiperidin-3-yl)-6-isopropyl-5-(8-methoxy-[1,2,4]triazolo[1,5-a]pyridin-6-yl)-1,3-dihydro-2H-benzo[d]imidazol-2-one]"
11,2.2,"COc1cc(-c2cc3[nH]c(=O)n([C@@H]4CCCN(CC5CC5)C4)c3cc2C(C)C)cn2ncnc12 [Example 142, (R)-1-(1-(cyclopropylmethyl)piperidin-3-yl)-6-isopropyl-5-(8-methoxy-[1,2,4]triazolo[1,5-a]pyridin-6-yl)-1,3-dihydro-2H-benzo[d]imidazol-2-one]"
12,3.24,"COc1cc(-c2cc3[nH]c(=O)n([C@@H]4CCCN(C5CCOCC5)C4)c3cc2C(C)C)cn2ncnc12 [Example 143, (R)-6-isopropyl-5-(8-methoxy-[1,2,4]triazolo[1,5-a]pyridin-6-yl)-1-(1-(tetrahydro-2H-pyran-4-yl)piperidin-3-yl)-1,3-dihydro-2H-benzo[d]imidazol-2-one]"
13,2.1,"Cc1c(-c2cc3[nH]c(=O)n([C@@H]4CCCN(C(C)C)C4)c3cc2C(C)C)cn2ncnc2c1C [Example 145, (R)-5-(7,8-dimethyl-[1,2,4]triazolo[1,5-a]pyridin-6-yl)-6-isopropyl-1-(1-isopropylpiperidin-3-yl)-1,3-dihydro-2H-benzo[d]imidazol-2-one]"
14,6.05,"Cc1c(-c2cc3[nH]c(=O)n([C@@H]4CCCN(C5COC5)C4)c3cc2C(C)C)cn2ncnc2c1C [Example 146, (R)-5-(7,8-dimethyl-[1,2,4]triazolo[1,5-a]pyridin-6-yl)-6-isopropyl-1-(1-(oxetan-3-yl)piperidin-3-yl)-1,3-dihydro-2H-benzo[d]imidazol-2-one]"
15,23.5,"Cc1c(-c2cc3[nH]c(=O)n([C@@H]4CCCN(C)C4)c3cc2C(C)C)cn2ncnc2c1C [Example 147, (R)-5-(7,8-dimethyl-[1,2,4]triazolo[1,5-a]pyridin-6-yl)-6-isopropyl-1-(1-methylpiperidin-3-yl)-1,3-dihydro-2H-benzo[d]imidazol-2-one]"
16,1.09,"CCC(CC)CN1CCC[C@@H](n2c(=O)[nH]c3cc(-c4cc(OC)c5ncnn5c4)c(C(C)C)cc32)C1 [Example 148, (R)-1-(1-(2-ethylbutyl)piperidin-3-yl)-6-isopropyl-5-(8-methoxy-[1,2,4]triazolo[1,5-a]pyridin-6-yl)-1,3-dihydro-2H-benzo[d]imidazol-2-one]"
17,4.58,"Cc1c(-c2cc3[nH]c(=O)n([C@@H]4CCCN(CC5CCOCC5)C4)c3cc2C(C)C)cn2ncnc2c1C [Example 149, (R)-5-(7,8-dimethyl-[1,2,4]triazolo[1,5-a]pyridin-6-yl)-6-isopropyl-1-(1-((tetrahydro-2H-pyran-4-yl)methyl)piperidin-3-yl)-1,3-dihydro-2H-benzo[d]imidazol-2-one]"
18,4.25,"CCCN1CCC[C@@H](n2c(=O)[nH]c3cc(-c4cn5ncnc5c(C)c4C)c(C(C)C)cc32)C1 [Example 150, (R)-5-(7,8-dimethyl-[1,2,4]triazolo[1,5-a]pyridin-6-yl)-6-isopropyl-1-(1-propylpiperidin-3-yl)-1,3-dihydro-2H-benzo[d]imidazol-2-one]"
19,21.7,"CCC(CC)CN1CCC[C@@H](n2c(=O)[nH]c3cc(-c4cn5ncnc5c(C)c4C)c(C(C)C)cc32)C1 [Example 151, (R)-5-(7,8-dimethyl-[1,2,4]triazolo[1,5-a]pyridin-6-yl)-1-(1-(2-ethylbutyl)piperidin-3-yl)-6-isopropyl-1,3-dihydro-2H-benzo[d]imidazol-2-one]"
20,2.27,"COc1cc(-c2cc3[nH]c(=O)n([C@@H]4CCCN(CC(C)(C)C)C4)c3cc2C(C)C)cn2ncnc12 [Example 153, (R)-6-isopropyl-5-(8-methoxy-[1,2,4]triazolo[1,5-a]pyridin-6-yl)-1-(1-neopentylpiperidin-3-yl)-1,3-dihydro-2H-benzo[d]imidazol-2-one]"
21,1.52,"COc1cc(-c2cc3[nH]c(=O)n(C4CCN(C)CC4)c3cc2C(C)C)cn2ncnc12 [Example 154, 6-isopropyl-5-(8-methoxy-[1,2,4]triazolo[1,5-a]pyridin-6-yl)-1-(1-methylpiperidin-4-yl)-1,3-dihydro-2H-benzo[d]imidazol-2-one]"
22,9.56,"CCCN1CCC(n2c(=O)[nH]c3cc(-c4cc(OC)c5ncnn5c4)c(C(C)C)cc32)CC1 [Example 155, 6-isopropyl-5-(8-methoxy-[1,2,4]triazolo[1,5-a]pyridin-6-yl)-1-(1-propylpiperidin-4-yl)-1,3-dihydro-2H-benzo[d]imidazol-2-one]"

row,SMILES,IC50 [nM]
1,"COc1cc(-c2cc3[nH]c(=O)n(C4CCN(C5CCC5)CC4)c3cc2C(C)C)cn2ncnc12 [Example 156, 1-(1-cyclobutylpiperidin-4-yl)-6-isopropyl-5-(8-methoxy-[1,2,4]triazolo[1,5-a]pyridin-6-yl)-1,3-dihydro-2H-benzo[d]imidazol-2-one]",4.77
2,"COc1cc(-c2cc3[nH]c(=O)n(C4CCN(C5COC5)CC4)c3cc2C(C)C)cn2ncnc12 [Example 157, 6-isopropyl-5-(8-methoxy-[1,2,4]triazolo[1,5-a]pyridin-6-yl)-1-(1-(oxetan-3-yl)piperidin-4-yl)-1,3-dihydro-2H-benzo[d]imidazol-2-one]",5.42
